Source: patent EP4570800A1, “CRYSTAL FORM OF PYRIDINOPYRIMIDINONE COMPOUND, ACID SALT THEREOF, CRYSTAL FORM OF ACID SALT THEREOF, AND USE” (Wuhan Humanwell Innovative Drug Research and Development …, priority 2022, dated 2024)
Counter-ions that a name gives are not always drawn.

Experiments:
[1] = Dynamic solubility in water, SGF, FaSSIF and FeSSIF; details: for S: solubility: 37°C, solid feed concentration 10 mg/mL; for pH: pH value of the filtrate
Description: 100 mg of NaCl and 50 mg of Triton X-100 were weighed into a 50 mL volumetric flask, and purified water was added to complete dissolution. 816 µL of 1 M hydrochloric acid was added thereto, and the pH was adjusted to 1.8 with 1 M hydrochloric acid or 1 M NaOH solution. Purified water was added to make up to volume.
340 mg of anhydrous NaH2PO4, 42 mg of NaOH, and 620 mg of NaCl were weighed into a 100 mL volumetric flask. Purified water was added to complete dissolution. The pH was adjusted to 6.5 with 1 M hydrochloric acid or 1 M NaOH solution. Purified water was added to make up to volume. 110 mg of SIF powder was then weighed into a 50 mL volumetric flask, added with the above solution to complete dissolution and make up to volume.
About 90 mL of purified water was added to complete dissolution, and the pH was adjusted to 5.0 with 1 M hydrochloric acid or 1 M NaOH solution. Purified water was added to make up to volume. 560 mg of SIF powder was then weighed into a 50 mL volumetric flask, added with the above solution to complete dissolution and make up to volume.
Rotating mixing was carried out at 37°C at a solid feed concentration of 10 mg/mL (calculated as the compound of formula I). […] After sampling at each time point, the samples were centrifuged (10000 rpm) and filtered (0.45 µm PTFE filter head), and the HPLC concentration and pH value of the filtrate were measured.

[2] = Solid state stability (XRPD and HPLC); format: physicochemical
Description: The purity test, dynamic solubility test, and stability test in the assay were measured with an Agilent 1260 high-performance liquid chromatograph, and the salt formation molar ratio of ions was tested by ion chromatography, and the analytical conditions are shown in Table 5 and Table 6.
Table 56 Summary of solid state stability evaluation

LOVO colorectal cancer = experiment: In vivo efficacy test on LOVO colorectal cancer; design: species or system mice; details: 50 mg/kg, BID
Description: After one week of adaptive feeding of mice, LOVO cells in a logarithmic phase were resuspended in serum-free F12K, 5 × 10^6 LOVO cells were inoculated subcutaneously at the right flank at 100 µL per mouse, and tumor growth was observed regularly. When the tumor grew to an average volume of 150 to 200 mm^3, the mice were randomly divided into a model group and an administration group based on the tumor size and body weight. The tumor size and body weight were measured and recorded before and during the administration. After the treatment, the tumor size in the model group was compared with that in the administration group to determine the efficacy.

[3] = test system: Mia Paca-2 pancreatic cancer; experiment: In vivo efficacy test on Mia Paca-2 pancreatic cancer; design: species or system mice; details: Mia Paca-2, BID
Description: After one week of adaptive feeding of mice, Mia Paca-2 cells in a logarithmic phase were resuspended in serum-free DMEM, and then mixed with Matrigel in a ratio of 1: 1. 1 × 10^7 Mia Paca-2 cells were inoculated subcutaneously at the right flank at 100 µL per mouse, and tumor growth was observed regularly. When the tumor grew to an average volume of 150 to 200 mm^3, the mice were randomly divided into a model group and an administration group (single drug, in combination with trametinib) based on the tumor size and body weight. The tumor size and body weight were measured and recorded before and during the administration. After the treatment, the tumor size in the model group was compared with that in the administration group to determine the efficacy.

[4] = XRPD after 25°C/60%RH/open, 1 week
[5] = XRPD after 40°C/75%RH/open, 1 week

SMILES	S: solubility ([1]; FaSSIF, 1 hour, 60 min) [µg/mL]	S: solubility ([1]; FaSSIF, 4 hours, 240 min) [µg/mL]	S: solubility ([1]; FaSSIF, 24 hours, 1440 min) [µg/mL]	S: solubility ([1]; H2O, 1 hour, 60 min) [µg/mL]	S: solubility ([1]; H2O, 4 hours, 240 min) [µg/mL]	S: solubility ([1]; H2O, 24 hours, 1440 min) [µg/mL]	S: solubility ([1]; SGF, 1 hour, 60 min) [µg/mL]	S: solubility ([1]; SGF, 4 hours, 240 min) [µg/mL]	S: solubility ([1]; SGF, 24 hours, 1440 min) [µg/mL]	pH ([1]; FaSSIF, 1 hour)	pH ([1]; FaSSIF, 4 hours)	pH ([1]; FaSSIF, 24 hours)	pH ([1]; FeSSIF, 1 hour)	pH ([1]; FeSSIF, 4 hours)	pH ([1]; FeSSIF, 24 hours)	pH ([1]; H2O, 1 hour)	pH ([1]; H2O, 4 hours)	pH ([1]; H2O, 24 hours)	pH ([1]; SGF, 1 hour)	pH ([1]; SGF, 4 hours)	other results
Cc1nc(N[C@H](C)c2cccc(S(F)(F)(F)(F)F)c2)c2cn(C3(CF)CC3)c(=O)cc2n1 [Crystal form B of citrate salt]	790	1180	1610	3610	3600	3680	9130	9400	9290	4.5	3.9	3.6	4.8	4.6	4.5	3.5	3.5	3.3	2.5	2.6	S: solubility ([1]; FeSSIF, 1 hour, 60 min): 4090 µg/mL; S: solubility ([1]; FeSSIF, 4 hours, 240 min): 3520 µg/mL; S: solubility ([1]; FeSSIF, 24 hours, 1440 min): 2960 µg/mL; pH ([1]; SGF, 24 hours): 2.4; HPLC results Purity (area%) ([2]; 25°C/60%RH/open, 1 week): 99.00 area%; HPLC results Purity (area%) ([2]; 40°C/75%RH/open, 1 week): 99.01 area%; HPLC results Purity (area%) ([2]; Onset): 98.92 area%; Crystal form [2, 4]: Crystal form A of citrate salt; Crystal form [2, 5]: Crystal form A of citrate salt
Cc1nc(N[C@H](C)c2cccc(S(F)(F)(F)(F)F)c2)c2cn(C3(CF)CC3)c(=O)cc2n1 [Crystal form A of methanesulfonate salt]	1440	1610	1830	10250	10160	9920	9760	9880	10130	4.3	4.4	4.0	4.8	4.8	4.8	3.5	3.5	3.1	1.7	1.8	S: solubility ([1]; FeSSIF, 1 hour, 60 min): 4040 µg/mL; S: solubility ([1]; FeSSIF, 4 hours, 240 min): 4160 µg/mL; S: solubility ([1]; FeSSIF, 24 hours, 1440 min): 4240 µg/mL; pH ([1]; SGF, 24 hours): 1.6; HPLC results Purity (area%) ([2]; 25°C/60%RH/open, 1 week): 99.21 area%; HPLC results Purity (area%) ([2]; 40°C/75%RH/open, 1 week): 99.26 area%; HPLC results Purity (area%) ([2]; Onset): 99.18 area%; Crystal form [2, 4]: Crystal form A of methanesulfonate salt; Crystal form [2, 5]: Crystal form A of methanesulfonate salt
Cc1nc(N[C@H](C)c2cccc(S(F)(F)(F)(F)F)c2)c2cn(C3(CF)CC3)c(=O)cc2n1 [Crystal form A of fumarate salt]	360	320	320	550	570	610	1960	1940	2090	4.8	4.6	4.3	4.6	4.8	4.7	4.2	4.2	4.1	1.8	2.0	pH ([1]; SGF, 24 hours): 1.7; HPLC results Purity (area%) ([2]; 25°C/60%RH/open, 1 week): 98.67 area%; HPLC results Purity (area%) ([2]; 40°C/75%RH/open, 1 week): 98.70 area%; HPLC results Purity (area%) ([2]; Onset): 98.67 area%; Crystal form [2, 4]: Crystal form A of fumarate salt; Crystal form [2, 5]: Crystal form A of fumarate salt
Cc1nc(N[C@H](C)c2cccc(C(F)F)c2F)c2cn(C3(C(F)F)CC3)c(=O)cc2n1 [Control compound 2, reference compound]	–	–	–	–	–	–	–	–	–	–	–	–	–	–	–	–	–	–	–	–	At the end of treatment Average tumor weight (LOVO colorectal cancer): 1.08 g; Average tumor weight at the end of the treatment ([3]; 50 mg/kg): 0.46 g
CC(=O)Nc1cccc(-n2c(=O)n(C3CC3)c(=O)c3c(Nc4ccc(I)cc4F)n(C)c(=O)c(C)c32)c1 [Trametinib]	–	–	–	–	–	–	–	–	–	–	–	–	–	–	–	–	–	–	–	–	Average tumor weight at the end of the treatment ([3]; 0.125 mg/kg): 0.22 g
Cc1nc(N[C@H](C)c2cccc(S(F)(F)(F)(F)F)c2)c2cn(C3(CF)CC3)c(=O)cc2n1 [Crystal form A of ethanesulfonate salt]	620	1610	2520	10060	9810	10080	10420	10130	10110	4.5	4.2	3.7	4.8	4.8	4.7	2.9	3.1	2.8	1.6	1.5	S: solubility ([1]; FeSSIF, 1 hour, 60 min): 2790 µg/mL; S: solubility ([1]; FeSSIF, 4 hours, 240 min): 3620 µg/mL; S: solubility ([1]; FeSSIF, 24 hours, 1440 min): 3700 µg/mL; pH ([1]; SGF, 24 hours): 1.5; HPLC results Purity (area%) ([2]; 25°C/60%RH/open, 1 week): 99.15 area%; HPLC results Purity (area%) ([2]; 40°C/75%RH/open, 1 week): 99.29 area%; HPLC results Purity (area%) ([2]; Onset): 99.10 area%; Crystal form [2, 4]: Crystal form A of ethanesulfonate salt; Crystal form [2, 5]: Crystal form A of ethanesulfonate salt
